Calls of active or inactive are those of the source. The rule behind the calls is not given here.

In this data set the test system is CCRIS mutagenicity, Ames/micronucleus/aberration tests. In words: CCRIS mutagenicity studies.
Setting [1] is: Test System: AMES SALMONELLA TYPHIMURIUM, Strain/Indicator: TA98, Metabolic Activation: NONE, Method: STANDARD PLATE.
The mark [2] stands for this setting: Test System: AMES SALMONELLA TYPHIMURIUM, Strain/Indicator: TA100, Metabolic Activation: NONE, Method: STANDARD PLATE.
[3] abbreviates: Test System: AMES SALMONELLA TYPHIMURIUM, Strain/Indicator: TA1535, Metabolic Activation: NONE, Method: STANDARD PLATE.
Where [4] appears, read: Test System: AMES SALMONELLA TYPHIMURIUM, Strain/Indicator: TA1537, Metabolic Activation: NONE, Method: STANDARD PLATE.
Setting [5] is: Test System: AMES SALMONELLA TYPHIMURIUM, Strain/Indicator: TA1538, Metabolic Activation: NONE, Method: STANDARD PLATE.
Where [6] appears, read: Test System: AMES SALMONELLA TYPHIMURIUM, Strain/Indicator: TA98, Metabolic Activation: NONE, Method: PREINCUBATION
Setting [7] is: Test System: AMES SALMONELLA TYPHIMURIUM, Strain/Indicator: TA100, Metabolic Activation: NONE, Method: PREINCUBATION

For `C=C[Si](C)(C)CCl`, the mutagenic call is, setting by setting: (Test System: AMES SALMONELLA TYPHIMURIUM, Strain/Indicator: TA98, Metabolic Activation: HAMSTER, LIVER, S-9, AROCLOR 1254 (10%), Method: STANDARD PLATE) “inactive; negative”; under setting [1], “inactive; negative”; (Test System: AMES SALMONELLA TYPHIMURIUM, Strain/Indicator: TA98, Metabolic Activation: RAT, LIVER, S-9, AROCLOR 1254 (10%), Method: STANDARD PLATE) “inactive; negative”; (Test System: AMES SALMONELLA TYPHIMURIUM, Strain/Indicator: TA100, Metabolic Activation: HAMSTER, LIVER, S-9, AROCLOR 1254 (10%), Method: STANDARD PLATE) “inactive; negative”; under setting [2], “inactive; negative”; (Test System: AMES SALMONELLA TYPHIMURIUM, Strain/Indicator: TA100, Metabolic Activation: RAT, LIVER, S-9, AROCLOR 1254 (10%), Method: STANDARD PLATE) “inactive; negative”. The mutagenic call by setting is: (Test System: AMES SALMONELLA TYPHIMURIUM, Strain/Indicator: TA1535, Metabolic Activation: HAMSTER, LIVER, S-9, AROCLOR 1254 (10%), Method: STANDARD PLATE) “inactive; negative”; under setting [3], “inactive; negative”; (Test System: AMES SALMONELLA TYPHIMURIUM, Strain/Indicator: TA1535, Metabolic Activation: RAT, LIVER, S-9, AROCLOR 1254 (10%), Method: STANDARD PLATE) “inactive; negative”; (Test System: AMES SALMONELLA TYPHIMURIUM, Strain/Indicator: TA1537, Metabolic Activation: HAMSTER, LIVER, S-9, AROCLOR 1254 (10%), Method: STANDARD PLATE) “inactive; negative”; under setting [4], “inactive; negative”; (Test System: AMES SALMONELLA TYPHIMURIUM, Strain/Indicator: TA1537, Metabolic Activation: RAT, LIVER, S-9, AROCLOR 1254 (10%), Method: STANDARD PLATE) “inactive; negative”. Moreover, the mutagenic call runs as follows: (Test System: AMES SALMONELLA TYPHIMURIUM, Strain/Indicator: TA1538, Metabolic Activation: HAMSTER, LIVER, S-9, AROCLOR 1254 (10%), Method: STANDARD PLATE) “inactive; negative”; under setting [5], “inactive; negative”; (Test System: AMES SALMONELLA TYPHIMURIUM, Strain/Indicator: TA1538, Metabolic Activation: RAT, LIVER, S-9, AROCLOR 1254 (10%), Method: STANDARD PLATE) “inactive; negative”; (Test System: MOUSE LYMPHOMA, Strain/Indicator: L5178Y (TK+/TK-), Metabolic Activation: NONE, Method: SUSPENSION/PLATE) “inactive; negative. reevaluation of results: inconclusive”; (Test System: MOUSE LYMPHOMA, Strain/Indicator: L5178Y (TK+/TK-), Metabolic Activation: RAT, LIVER, S-9, AROCLOR 1254, Method: SUSPENSION/PLATE) “inactive; negative. reevaluation of results: negative”.

As to `CN(CCO)C(=O)Nc1ccc(Cl)c(Cl)c1`, the mutagenic call under setting [1] was “inactive; negative”; the mutagenic call (Test System: AMES SALMONELLA TYPHIMURIUM, Strain/Indicator: TA98, Metabolic Activation: RAT, LIVER, S-9, AROCLOR 1254, Method: STANDARD PLATE) was “inactive; negative”; the mutagenic call under setting [2] is “inactive; negative”; the mutagenic call (Test System: AMES SALMONELLA TYPHIMURIUM, Strain/Indicator: TA100, Metabolic Activation: RAT, LIVER, S-9, AROCLOR 1254, Method: STANDARD PLATE) is “inactive; negative”; the mutagenic call under setting [3] is “inactive; negative”; the mutagenic call (Test System: AMES SALMONELLA TYPHIMURIUM, Strain/Indicator: TA1535, Metabolic Activation: RAT, LIVER, S-9, AROCLOR 1254, Method: STANDARD PLATE) is “inactive; negative”. The mutagenic call is, setting by setting: under setting [4], “inactive; negative”; (Test System: AMES SALMONELLA TYPHIMURIUM, Strain/Indicator: TA1537, Metabolic Activation: RAT, LIVER, S-9, AROCLOR 1254, Method: STANDARD PLATE) “inactive; negative”; under setting [5], “inactive; negative”; (Test System: AMES SALMONELLA TYPHIMURIUM, Strain/Indicator: TA1538, Metabolic Activation: RAT, LIVER, S-9, AROCLOR 1254, Method: STANDARD PLATE) “inactive; negative”.

Regarding `CCC(C)OC(=O)C=Cc1ccc([N+](=O)[O-])o1` (configuration not stated), the mutagenic call under setting [6] was “active; positive”.

As to `Cn1cc(C[C@@]2(O)C(=O)O[C@@H]3[C@@H](O)CO[C@@]32O)c2ccccc21`, the mutagenic call under setting [1] was “active; positive”; the mutagenic call (Test System: AMES SALMONELLA TYPHIMURIUM, Strain/Indicator: TA98, Metabolic Activation: RAT, LIVER, S-9, PCB, Method: STANDARD PLATE) was “active; positive”; the mutagenic call under setting [2] was “active; positive”; the mutagenic call (Test System: AMES SALMONELLA TYPHIMURIUM, Strain/Indicator: TA100, Metabolic Activation: RAT, LIVER, S-9, PCB, Method: STANDARD PLATE) was “active; positive”.

On to `COc1cc2c(c3oc(=O)c4c(c13)CCOC4=O)[C@@H]1C=CO[C@@H]1O2`, for which the mutagenic call was “active; positive” (Test System: AMES SALMONELLA TYPHIMURIUM, Strain/Indicator: TA98, Metabolic Activation: RAT, LIVER, MICROSOMES, PHENOBARBITAL, Method: STANDARD PLATE); “active; positive” (Test System: AMES SALMONELLA TYPHIMURIUM, Strain/Indicator: TA98, Metabolic Activation: RAT, LIVER, S-9, PHENOBARBITAL, Method: STANDARD PLATE); “active; positive” under setting [7]; “active; positive” (Test System: AMES SALMONELLA TYPHIMURIUM, Strain/Indicator: TA100, Metabolic Activation: RAT, LIVER, MICROSOMES, PHENOBARBITAL, Method: STANDARD PLATE); “active; positive” (Test System: AMES SALMONELLA TYPHIMURIUM, Strain/Indicator: TA100, Metabolic Activation: RAT, LIVER, S-9, PHENOBARBITAL, Method: PREINCUBATION); “active; positive” (Test System: UDS HUMAN FIBROBLASTS, Strain/Indicator: THY INCORP (NON-S-PHASE), Metabolic Activation: MOUSE, LIVER, S-9, Method: AUTORADIOGRAPHY). In addition, the mutagenic call (Test System: UDS RODENT HEPATOCYTES, Strain/Indicator: THY INCORP (NON-S-PHASE), Method: AUTORADIOGRAPHY) was “active; positive”.

Consider `CNCCO`, for which the mutagenic call reads like this: (Test System: AMES SALMONELLA TYPHIMURIUM, Strain/Indicator: TA98, Metabolic Activation: HAMSTER, LIVER, S-9, AROCLOR 1254 (10%), Method: PREINCUBATION) “inactive; negative”; under setting [6], “inactive; negative”; (Test System: AMES SALMONELLA TYPHIMURIUM, Strain/Indicator: TA98, Metabolic Activation: RAT, LIVER, S-9, AROCLOR 1254 (10%), Method: PREINCUBATION) “inactive; negative”; (Test System: AMES SALMONELLA TYPHIMURIUM, Strain/Indicator: TA100, Metabolic Activation: HAMSTER, LIVER, S-9, AROCLOR 1254 (10%), Method: PREINCUBATION) “inactive; negative”; under setting [7], “inactive; negative”; (Test System: AMES SALMONELLA TYPHIMURIUM, Strain/Indicator: TA100, Metabolic Activation: RAT, LIVER, S-9, AROCLOR 1254 (10%), Method: PREINCUBATION) “inactive; negative”. Besides, the mutagenic call was “inactive; negative” (Test System: AMES SALMONELLA TYPHIMURIUM, Strain/Indicator: TA1535, Metabolic Activation: HAMSTER, LIVER, S-9, AROCLOR 1254 (10%), Method: PREINCUBATION); “inactive; negative” (Test System: AMES SALMONELLA TYPHIMURIUM, Strain/Indicator: TA1535, Metabolic Activation: NONE, Method: PREINCUBATION); “inactive; negative” (Test System: AMES SALMONELLA TYPHIMURIUM, Strain/Indicator: TA1535, Metabolic Activation: RAT, LIVER, S-9, AROCLOR 1254 (10%), Method: PREINCUBATION); “inactive; negative” (Test System: AMES SALMONELLA TYPHIMURIUM, Strain/Indicator: TA1537, Metabolic Activation: HAMSTER, LIVER, S-9, AROCLOR 1254 (10%), Method: PREINCUBATION); “inactive; negative” (Test System: AMES SALMONELLA TYPHIMURIUM, Strain/Indicator: TA1537, Metabolic Activation: NONE, Method: PREINCUBATION); “inactive; negative” (Test System: AMES SALMONELLA TYPHIMURIUM, Strain/Indicator: TA1537, Metabolic Activation: RAT, LIVER, S-9, AROCLOR 1254 (10%), Method: PREINCUBATION).

Consider `CC(=O)OC[C@H]1OC(OC(C)=O)[C@H](NC(=O)N(C)N=O)[C@@H](OC(C)=O)[C@@H]1OC(C)=O` (some centres not stated), for which the mutagenic call (Test System: CHINESE HAMSTER V-79, Strain/Indicator: V-79/8-AZAGUANINE, Metabolic Activation: NONE, Method: STANDARD PLATE) was “active; positive”.

Values taken from PubChem BioAssay AID1259407 (Chemical Carcinogenesis Research Information System (CCRIS), 2018).
